Here are results for eleven compounds from patent US10821115B2, “Compounds that inhibit Mcl-1 protein” (priority 2017, dated 2020).

Structures are written as SMILES. Where two headings read alike, the source gives them in different places.

For test [1], the target named is recombinant human Mcl-1 (residues 171-327) / Bim interaction (Homo sapiens (Human), UniProt Q07820). Description: biochemical. It counts as binding. The conditions noted are these: read-out: Mcl-1 HTRF IC50. For orientation: Time-resolved FRET reads energy transfer from a long-lived donor to a nearby acceptor.
recombinant human Mcl-1 (residues 171-327) / Bim interaction, sequence (Q07820 171-327): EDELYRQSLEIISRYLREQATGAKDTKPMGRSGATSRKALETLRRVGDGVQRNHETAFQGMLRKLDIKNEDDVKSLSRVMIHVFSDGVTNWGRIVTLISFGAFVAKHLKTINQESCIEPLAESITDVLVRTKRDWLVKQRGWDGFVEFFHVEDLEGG
The subject of test [2] is human multiple myeloma cell line, OPM-2. Description: Cell viability assay (OPM-2 10 FBS), CellTiter-Glo. The format is cell-based. Put shortly:
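3000 cells/well, RPMI 1640 + 10% FBS; serial compound dilutions, 16 h, 37 °C/5% CO2.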

Where [3] appears, read: TR-FRET, Mcl-1(171-327) / biotin-Bim (51-76).
Where [4] appears, read: Homo sapiens, OPM-2, 16 h, read-out: OPM-2 10% FBS IC50 IP, OPM-2 cells, 10% FBS, 16 h, CellTiter-Glo.
[5] abbreviates: 0.1 nM Mcl-1(171-327), 0.05 nM biotin-Bim (51-76).
[6] abbreviates: Homo sapiens, OPM-2, 16 h, read-out: OPM-2 10% FBS IC50 IP, OPM-2 cells, 10% FBS, 16 h incubation.
Setting [7] is: read-out: OPM-2 10% FBS IC50 IP, OPM-2 cells, 10% FBS, 16 h, CellTiter-Glo.

As to `CO[C@@]1(C#CCCN2CCN3CCOC[C@@H]3C2)/C=C/C[C@H](C)[C@@H](C)S(=O)(=O)NC(=O)c2ccc3c(c2)N(C[C@@H]2CC[C@H]21)C[C@@]1(CCCc2cc(Cl)ccc21)CO3` [Example 100011, (1 S,3′R,6′R,7′S,8′E,11′S, 12′R)-6-chloro-7′-(4-((9aS)-hexahydropyrazino[2,1-c][1,4]oxazin-8(1H)-yl)-1-butyn-1-yl)-7′-methoxy-11′,12′-dimethyl-3,4-dihydro-2H,15′H-spiro[naphthalene-1,22′-[20]oxa[13]thia[1,14]diazatetracyclo[14.7.2.0-3,6˜.0˜19,24˜]pentacosa[8,16,18,24]tetraen]-15′-one 13′,13′-dioxide], the figures for the IC50 in test [1] (setting [3]) and in test [2] (setting [4]) were 0.153 nM and 134 nM, respectively.
As to `CO[C@@]1(CN2CC(N3CCS(=O)(=O)CC3)C2)/C=C/C[C@H](C)[C@@H](C)S(=O)(=O)NC(=O)c2ccc3c(c2)N(C[C@@H]2CC[C@H]21)C[C@@]1(CCCc2cc(Cl)ccc21)CO3` [Example 279, (1S,3′R,6′R,7′S,8′E,11′S,12′R)-6-chloro-7′-((3-(1,1-dioxido-4-thiomorpholinyl)-1-azetidinyl)methyl)-7′-methoxy-11′,12′-dimethyl-3,4-dihydro-2H,15′H-spiro[naphthalene-1,22′-[20]oxa[13]thia[1,14]diazatetracyclo [14.7.2.0~3,6~.0~19,24~]pentacosa[8,16,18,24]tetraen]-15′-one 13′,13′-dioxide], the figures for the half-inhibitory concentration (IC50) in test [1] (setting [5]) and in test [2] (setting [6]) were 0.084 nM and 453 nM, respectively.
On to `C[C@@H]1[C@@H](C)C/C=C/[C@](O)(c2ccncc2F)[C@@H]2CC[C@H]2CN2C[C@@]3(CCCc4cc(Cl)ccc43)COc3ccc(cc32)C(=O)NS1(=O)=O` [Example 100368, (1S,3′R,6′R,7′R,8′E,11′S,12′R)-6-chloro-7′-(3-fluoro-4-pyridinyl)-7′-hydroxy-11′,12′-dimethyl-3,4-dihydro-2H,15′H-spiro[naphthalene-1,22′-[20]oxa[13]thia[1,14]diazatetracyclo [14.7.2.0~3,6~.0~19,24~]pentacosa[8,16,18,24]tetraen]-15′-one 13′,13′-dioxide], for which the figures for the IC50 in test [1] (setting [3]) and in test [2] (setting [4]) were 0.377 nM and 611 nM, respectively.
For `CO[C@@]1(C)/C=C/C[C@H](C)[C@@H](CCOS(C)(=O)=O)S(=O)(=O)NC(=O)c2ccc3c(c2)N(C[C@@H]2CC[C@H]21)C[C@@]1(CCCc2cc(Cl)ccc21)CO3` (single isomer, unassigned) [Example 100598], the results for the IC50 in test [1] (setting [3]) and in test [2] (setting [7]) were 0.077 nM and 188 nM, respectively.
For the compound `CO[C@]1(Cc2cc(C)on2)/C=C/C[C@H](C)[C@@H](C)S(=O)(=O)NC(=O)c2ccc3c(c2)N(C[C@@H]2CC[C@H]21)C[C@@]1(CCCc2cc(Cl)ccc21)CO3` [Example 100548, (1S,3′R,6′R,7′R,8′E,11′S,12′R)-6-chloro-7′-methoxy-11′,12′-dimethyl-7′-((5-methyl-1,2-oxazol-3-yl)methyl)-3,4-dihydro-2H,15′H-spiro[naphthalene-1,22′-[20]oxa[13]thia[1,14]diazatetracyclo [14.7.2.0~3,6~.0~19,24~]pentacosa[8,16,18,24]tetraen]-15′-one 13′,13′-dioxide], the concentration for half-maximal inhibition (IC50) was 0.064 nM in test [1] (setting [3]) and 8410 nM in test [2] (setting [4]).
On to `C[C@@H]1[C@@H](C)C/C=C/[C@@](O)(CC(=O)N2CCCC2)[C@@H]2CC[C@H]2CN2C[C@@]3(CCCc4cc(Cl)ccc43)COc3ccc(cc32)C(=O)NS1(=O)=O` [Example 100252, (1S,3′R,6′R,7′S,8′E,11′S,12′R)-6-chloro-7′-hydroxy-11′,12′-dimethyl-7′-(2-oxo-2-(1-pyrrolidinyl)ethyl)-3,4-dihydro-2H,15′H-spiro[naphthalene-1,22′-[20]oxa[13]thia[1,14]diazatetracyclo [14.7.2.0~3,6~.0~19,24~]pentacosa[8,16,18,24]tetraen]-15′-one 13′,13′-dioxide], for which the figures for the IC50 in test [1] (setting [3]) and in test [2] (setting [7]) were 0.112 nM and 77 nM, respectively.
Consider `CO[C@]1(CN2CCOCC2)/C=C/C[C@H](C)[C@@H](C)S(=O)(=O)NC(=O)c2ccc3c(c2)N(C[C@@H]2CC[C@H]21)C[C@@]1(CCCc2cc(Cl)ccc21)CO3` [Example 53, (1S,3′R,6′R,7′R,8′E,11′S,12′R)-6-chloro-7′-methoxy-11′,12′-dimethyl-7′-(4-morpholinylmethyl)-3,4-dihydro-2H,15′H-spiro[naphthalene-1,22′-[20]oxa[13]thia[1,14]diazatetracyclo [14.7.2.0~3,6~.0~19,24~]pentacosa[8,16,18,24]tetraen]-15′-one 13′,13′-dioxide], for which the figures for the IC50 in test [1] (setting [5]) and in test [2] (setting [6]) were 0.336 nM and 290 nM, respectively.
Take `CO[C@@]1(CC(=O)[C@H](C)CN(C)C)/C=C/C[C@H](C)[C@@H](C)S(=O)(=O)NC(=O)c2ccc3c(c2)N(C[C@@H]2CC[C@H]21)C[C@@]1(CCCc2cc(Cl)ccc21)CO3` (single isomer, unassigned) [Example 100478]: the IC50 stood at 3.47 nM in test [1] (setting [3]) and 4090 nM in test [2] (setting [4]).
For `C[C@@H]1[C@@H](C)C/C=C/[C@](O)(C#N)[C@@H]2CC[C@H]2CN2C[C@@]3(CCCc4cc(Cl)ccc43)COc3ccc(cc32)C(=O)NS1(=O)=O` [Example 100237, (1S,3′R,6′R,7′R,8′E,11′S,12′R)-6-chloro-7′-hydroxy-11′,12′-dimethyl-15′-oxo-3,4-dihydro-2H-spiro[naphthalene-1,22′-[20]oxa[13]thia[1,14]diazatetracyclo [14.7.2.0~3,6~.0~19,24~]pentacosa[8,16,18,24]tetraene]-7′-carbonitrile 13′,13′-dioxide], in that order: 1.74 nM and 996 nM.
In the case of `CO[C@@]1(CN2CCC(N(C)C)CC2)/C=C/C[C@H](C)[C@@H](C)S(=O)(=O)NC(=O)c2ccc3c(c2)N(C[C@@H]2CC[C@H]21)C[C@@]1(CCCc2cc(Cl)ccc21)CO3` [Example 118, (1S,3′R,6′R,7′S,8′E,11′S,12′R)-6-chloro-7′-((4-(dimethylamino)-1-piperidinyl)methyl)-7′-methoxy-11′,12′-dimethyl-3,4-dihydro-2H,15′H-spiro[naphthalene-1,22′-[20]oxa[13]thia[1,14]diazatetracyclo [14.7.2.0~3,6~.0~19,24~]pentacosa[8,16,18,24]tetraen]-15′-one 13′,13′-dioxide], the half-maximal inhibitory concentration (IC50) in test [1] (setting [5]) came to 0.215 nM; in test [2] (setting [6]), 558 nM.
For `CO[C@]1(CN2CCN3CCCC[C@@H]3C2)/C=C/C[C@H](C)[C@@H](CC=O)S(=O)(=O)NC(=O)c2ccc3c(c2)N(C[C@@H]2CC[C@H]21)C[C@@]1(CCCc2cc(Cl)ccc21)CO3` [Example 360, ((1S,3′R,6′R,7′R,8′E,11′S,12′R)-6-Chloro-7′-methoxy-11′-methyl-7′-((9aR)-octahydro-2H-pyrido[1,2-a]pyrazin-2-ylmethyl)-13′,13′-dioxido-15′-oxo-3,4-dihydro-2H-spiro[naphthalene-1,22′-[20]oxa[13]thia[1,14]diazatetracyclo[14.7.2.0-3,6˜.0˜19,24˜]pentacosa[8,16,18,24]tetraen]-12′-yl)acetaldehyde], in that order: 1.07 nM and 2410 nM.

Broadly, the IC50 is the concentration that inhibits the measured activity by half.
